According to patent publication US20210276967A1 (OSPEDALE SAN RAFFAELE S.R.L., priority 2018, published 2021):

System: HBV
Assay: HBV inhibition in HepAD38 cells, extracellular HBV DNA by direct qPCR
Format: cell-based, hepatitis B virus
Conditions: Hepatitis B virus; 0.5 μM, HepAD38, 96 hours; read-out: HBV inhibition % (conc μM)
Description: HepAD38 cell line (Ladner et al., Antimicrob Agents Chemother, 1997, 41, 1715-20) was used for HBV inhibition assays. HepAD38 is a subclone, derived from hepatoblastoma cell line HepG2 (ATCC® Number: HB-8065™), that expresses HBV genome under the transcriptional control of a tetracycline-responsive promoter in a TET-OFF system: addition of tetracycline (TET) or doxycycline suppresses HBV replication, while its removal switches on the process allowing HBV viral particles release in the cell supernatant. HepAD38 cell line is maintained in DMEM/F12, supplemented with 10% of fetal bovine serum, 1% of glutamine, 1% of penicillin/streptomycin, 0.4 mg/ml G418 and 0.3 ug/ml tetracycline. For the HBV inhibition assay, doxycycline-free medium is used in order to allow virion production.
HBV inhibition activity in vitro was performed in 96 multiwell plates. During the initial (primary) screening compounds were first tested in triplicates at concentrations of 0.1 μM, 0.5 μM and 1 μM. For selected compounds, an 8-point dose-response curve was obtained using 1:2 serial dilutions (starting from 2.5 μM, 1.25 μM or 0.4 μM, depending on the degree of inhibition observed during the primary screening). From the dose-response curves, half maximal effective concentration (EC50) could be calculated (see also below).
In more detail, compounds—typically dissolved in DMSO stock solutions—were diluted to 2× the final desired concentration in 100 μl of the above medium (without doxycycline) and plated in three replicates in the 96-well plates.
Simultaneously, HepAD38 cells—extensively pre-washed in tetracycline-free medium in order to induce HBV production—were suspended at 2*10^4 cells in 100 μl of tetracycline-free medium and added to each well of the plate, to yield a final assay volume of 200 μl.
DMSO, used for stock solutions and compounds dilutions, is always present in the assays at a final concentration of 0.5%.
Plates were then incubated 96 hours at 37° C. and then subjected to cell viability assays and extracellular HBV quantification, in order to evaluate both the cytotoxic potential and the anti-viral activity of compounds.
Cytotoxicity was assessed by a commercial fluorescence assay that measures the metabolic activity of cells, directly related to cell viability (Cell Titer Blue, Promega). For each compound, cytotoxicity was evaluated at the same concentration employed to evaluate its anti-HBV activity. Anti-HBV activity was evaluated by quantification of extracellular HBV DNA with direct qPCR. In particular, supernatant was collected and centrifuged for cell debris clarification, viral DNA was extracted from virions by addition of lysis buffer (1 mM 1,4-dithiothreitol, 0.2% sodium dodecyl sulphate) and incubated at 95° C. for 10 min. Samples were then diluted 1:40 and real time PCR amplification was performed with SYBR green assay (Power SYBR™ Green PCR Master Mix-Thermo Fisher Scientific) and specific HBV primer (HBV-DF:5′-[…]-3′ (SEQ ID No. 1), HBV-DR:5′-[…]-3′ (SEQ ID No. 2)).
All HBV inhibition or antiviral activity data are typically reported in percent (%) relative to a non-treated reference sample. Excel and Graphpad Prism programs are typically used for data elaboration and EC50 calculation.

Compound | inhibition at 0.5 µM [%]
Nc1ccc(C(=O)Nc2cc(F)c(F)c(F)c2)cc1S(=O)(=O)N[C@@H]1CC[C@@H](O)C1 (relative stereo) [Example E57, trans-4-amino-3-(N-(3-hydroxycyclopentyl)sulfamoyl)-N-(3,4,5-trifluorophenyl)benzamide] | > 50
Nc1ccc(C(=O)Nc2cc(F)c(F)c(F)c2)cc1S(=O)(=O)N[C@@H]1CC[C@@H](O)C1 (stereo in doubt) [Example E26, 4-amino-3-(N-((1R,3R)-3-hydroxycyclopentyl)sulfamoyl)-N-(3,4,5-trifluorophenyl)benzamide] | > 50
Nc1ccc(C(=O)Nc2ccc(F)c(F)c2)cc1S(N)(=O)=O [Example E4, 4-amino-N-(3,4-difluorophenyl)-3-sulfamoylbenzamide] | > 50
Nc1ccc(C(=O)Nc2ccc(F)c(C(F)(F)F)c2)cc1S(N)(=O)=O [Example E7, 4-amino-N-(4-fluoro-3-(trifluoromethyl)phenyl)-3-sulfamoylbenzamide] | > 50
N#Cc1cc(NC(=O)c2ccc(N)c(S(N)(=O)=O)c2)ccc1F [Example E8, 4-amino-N-(3-cyano-4-fluorophenyl)-3-sulfamoylbenzamide] | > 50
Nc1ccc(C(=O)Nc2ccc(F)c(C(F)F)c2)cc1S(N)(=O)=O [Example E9, 4-amino-N-(3-(difluoromethyl)-4-fluorophenyl)-3-sulfamoylbenzamide] | > 50
Nc1ccc(C(=O)Nc2ccc(F)c(Cl)c2)cc1S(N)(=O)=O [Example E10, 4-amino-N-(3-chloro-4-fluorophenyl)-3-sulfamoylbenzamide] | > 50
Nc1ccc(C(=O)Nc2ccc(Cl)nc2)cc1S(N)(=O)=O [Example E11, 4-amino-N-(6-chloropyridin-3-yl)-3-sulfamoylbenzamide] | < 50
Cc1cc(NC(=O)c2ccc(N)c(S(N)(=O)=O)c2)ccc1F [Example E12, 4-amino-N-(4-fluoro-3-methylphenyl)-3-sulfamoylbenzamide] | > 50
Cc1c(F)cc(NC(=O)c2ccc(N)c(S(N)(=O)=O)c2)cc1F [Example E13, 4-amino-N-(3,5-difluoro-4-methylphenyl)-3-sulfamoylbenzamide] | < 50
Nc1ccc(C(=O)Nc2ccc(F)c(F)c2F)cc1S(N)(=O)=O [Example E14, 4-amino-3-sulfamoyl-N-(2,3,4-trifluorophenyl)benzamide] | < 50
Nc1ccc(C(=O)Nc2cc(F)c(F)cc2F)cc1S(N)(=O)=O [Example E15, 4-amino-3-sulfamoyl-N-(2,4,5-trifluorophenyl)benzamide] | < 50
Nc1ccc(C(=O)Nc2ccc(F)cc2Cl)cc1S(N)(=O)=O [Example E16, 4-amino-N-(2-chloro-4-fluorophenyl)-3-sulfamoylbenzamide] | < 50
C[C@@H](NS(=O)(=O)c1cc(C(=O)Nc2cc(F)c(F)c(F)c2)ccc1N)C(F)(F)F [Example E18, (R)-4-amino-N-(3,4,5-trifluorophenyl)-3-(N-(1,1,1-trifluoropropan-2-yl)sulfamoyl)benzamide] | > 50
C[C@H](NS(=O)(=O)c1cc(C(=O)Nc2cc(F)c(F)c(F)c2)ccc1N)C(F)(F)F [Example E19, (S)-4-amino-N-(3,4,5-trifluorophenyl)-3-(N-(1,1,1-trifluoropropan-2-yl)sulfamoyl)benzamide] | > 50
Nc1ccc(C(=O)Nc2cc(F)c(F)c(F)c2)cc1S(=O)(=O)NC1CC1 [Example E20, 4-amino-3-(N-cyclopropylsulfamoyl)-N-(3,4,5-trifluorophenyl)benzamide] | > 50
Nc1ccc(C(=O)Nc2cc(F)c(F)c(F)c2)cc1S(=O)(=O)N[C@H]1CC[C@@H](O)CC1 [Example E22, cis-4-amino-3-(N-(4-hydroxycyclohexyl)sulfamoyl)-N-(3,4,5-trifluorophenyl)benzamide] | > 50
Cc1cc(N)c(S(=O)(=O)N[C@H]2CC[C@H](O)CC2)cc1C(=O)Nc1cc(F)c(F)c(F)c1 [Example E23, trans-4-amino-5-(N-(4-hydroxycyclohexyl)sulfamoyl)-2-methyl-N-(3,4,5-trifluorophenyl)benzamide] | > 50
Nc1ccc(C(=O)Nc2cc(F)c(F)c(F)c2)cc1S(=O)(=O)N[C@H]1C[C@@H](O)C1 [Example E24] | > 50
Nc1ccc(C(=O)Nc2cc(F)c(F)c(F)c2)cc1S(=O)(=O)N[C@H]1C[C@H](O)C1 [Example E25] | > 50
CC(C)(C)OC(=O)N1CCC(NS(=O)(=O)c2cc(C(=O)Nc3cc(F)c(F)c(F)c3)ccc2N)CC1 [Example E27, tert-butyl 4-((2-amino-5-((3,4,5-trifluorophenyl)carbamoyl)phenyl)sulfonamido)piperidine-1-carboxylate] | < 50
Nc1ccc(C(=O)Nc2cc(F)c(F)c(F)c2)cc1S(=O)(=O)NC1CCNCC1 [Example E28, 4-amino-3-(N-(piperidin-4-yl)sulfamoyl)-N-(3,4,5-trifluorophenyl)benzamide] | < 50
Nc1ccc(C(=O)Nc2cc(F)c(F)c(F)c2)cc1S(=O)(=O)N1CCC(O)CC1 [Example E29, 4-amino-3-((4-hydroxypiperidin-1-yl)sulfonyl)-N-(3,4,5-trifluorophenyl)benzamide] | > 50
Nc1ccc(C(=O)Nc2cc(F)c(F)c(F)c2)cc1S(=O)(=O)Nc1ccncc1 [Example E31, 4-amino-3-(N-(pyridin-4-yl)sulfamoyl)-N-(3,4,5-trifluorophenyl)benzamide] | < 50
Nc1ccc(C(=O)Nc2cc(F)c(F)c(F)c2)cc1S(=O)(=O)NC1COC1 [Example E33, 4-amino-3-(N-(oxetan-3-yl)sulfamoyl)-N-(3,4,5-trifluorophenyl)benzamide] | > 50
CC(C)(C)OC(=O)N1CC[C@H](NS(=O)(=O)c2cc(C(=O)Nc3cc(F)c(F)c(F)c3)ccc2N)C1 [Example E34, tert-butyl (S)-3-((2-amino-5-((3,4,5-trifluorophenyl)carbamoyl)phenyl)sulfonamido)pyrrolidine-1-carboxylate] | > 50
Nc1ccc(C(=O)Nc2cc(F)c(F)c(F)c2)cc1S(=O)(=O)N[C@H]1CCNC1 [Example E35, (S)-4-amino-3-(N-(pyrrolidin-3-yl)sulfamoyl)-N-(3,4,5-trifluorophenyl)benzamide] | < 50
Cc1cc(C(=O)Nc2cc(F)c(F)c(F)c2)cc(S(N)(=O)=O)c1N [Example E36, 4-amino-3-methyl-5-sulfamoyl-N-(3,4,5-trifluorophenyl)benzamide] | > 50
Nc1ncc(C(=O)Nc2cc(F)c(F)c(F)c2)cc1S(N)(=O)=O [Example E37, 6-amino-5-sulfamoyl-N-(3,4,5-trifluorophenyl)nicotinamide] | < 50

Same assay, conditions: Hepatitis B virus; 1 μM, HepAD38, 96 hours; read-out: HBV inhibition % (conc μM)

Compound | inhibition at 1 µM [%]
CNc1ccc(C(=O)Nc2cc(F)c(F)c(F)c2)cc1S(N)(=O)=O [Example E1, 4-(methylamino)-3-sulfamoyl-N-(3,4,5-trifluorophenyl)benzamide] | < 50
CNS(=O)(=O)c1cc(C(=O)Nc2cc(F)c(F)c(F)c2)ccc1N [Example E2, 4-amino-3-(N-methylsulfamoyl)-N-(3,4,5-trifluorophenyl)benzamide] | > 50
Nc1cc(Br)c(C(=O)Nc2cc(F)c(F)c(F)c2)cc1S(N)(=O)=O [Example E6, 4-amino-2-bromo-5-sulfamoyl-N-(3,4,5-trifluorophenyl)benzamide] | > 50

Same assay, conditions: Hepatitis B virus; HepAD38, 8-point dose-response; read-out: HBV inh EC50

Compound | EC50 [nM]
Nc1cc(Cl)c(C(=O)Nc2cc(F)c(F)c(F)c2)cc1S(N)(=O)=O [Example E5, 4-amino-2-chloro-5-sulfamoyl-N-(3,4,5-trifluorophenyl)benzamide] | < 1000
Nc1ccc(C(=O)Nc2cc(F)c(F)c(F)c2)cc1S(=O)(=O)N[C@H]1CC[C@H](O)CC1 [Example E21, trans-4-amino-3-(N-(4-hydroxycyclohexyl)sulfamoyl)-N-(3,4,5-trifluorophenyl)benzamide] | < 1000
